Data set [1] relates to Echinochloa crus-galli. Kind of data set: Post-emergent herbicidal activity against Echinochloa crus-galli (barnyard grass) at <2 g/ha measured after 13 days under green house conditions. The format is functional, organism-based.
Data set [2] concerns Echinochloa crus-galli. The data set can be described thus: Post-emergent herbicidal activity against Echinochloa crus-galli (barnyard grass) at 500 g/ha measured after 13 days under green house conditions. It is filed as functional.
The test system of data set [3] is Setaria viridis. The data set can be described thus: Post-emergent herbicidal activity against Setaria viridis (green foxtail) at <2 g/ha measured after 13 days under green house conditions. The format is functional, organism-based.
Data set [4] deals with Sorghum halepense. Kind of data set: Post-emergent herbicidal activity against Sorghum halepense (Johnson grass) at 500 g/ha measured after 13 days under green house conditions. The format is functional.
The subject of data set [5] is Avena fatua. Kind of data set: Post-emergent herbicidal activity against Avena fatua at <2 g/ha measured after 13 days under green house conditions. It is filed as functional, organism-based.
Data set [6] has as its system Avena fatua. Kind of data set: Post-emergent herbicidal activity against Avena fatua at 500 g/ha measured after 13 days under green house conditions. The format is functional.
Data set [7] has as its system Triticum aestivum. The data set can be described thus: Phytotoxicity against Triticum aestivum (wheat) at two to four-leaf growth stage at <2 g/ha measured after 13 days under green house conditions. It is filed as organism-based. The conditions noted are these: in vivo, 312 h.
In data set [8] the test system is Triticum aestivum. Kind of data set: Phytotoxicity against Triticum aestivum (wheat) plant at two to four-leaf growth stage at 500 g/ha measured after 13 days under green house conditions. It is filed as organism-based. The settings on record: in vivo, 312 h.
The test system of data set [9] is Oryza sativa. The data set can be described thus: Phytotoxicity against Oryza sativa (rice) plant at two to four-leaf growth stage at <2 g/ha measured after 13 days under green house conditions. The format is organism-based. The conditions noted are these: in vivo, 312 h.
The subject of data set [10] is Sorghum halepense. Kind of data set: Post-emergent herbicidal activity against Sorghum halepense (Johnson grass) at <2 g/ha measured after 13 days under green house conditions. It is filed as functional, organism-based.
The test system of data set [11] is Setaria viridis. Kind of data set: Post-emergent herbicidal activity against Setaria viridis (green foxtail) at 500 g/ha measured after 13 days under green house conditions. The format is functional.
For data set [12], the system named is Oryza sativa. Kind of data set: Phytotoxicity against Oryza sativa (rice) plant at two to four-leaf growth stage at 500 g/ha measured after 13 days under green house conditions. It is filed as organism-based. The conditions noted are these: in vivo, 312 h.
Data set [13] deals with Zea mays. Kind of data set: Phytotoxicity against Zea mays (maize) plant at two to four-leaf growth stage at <2 g/ha measured after 13 days under green house conditions. It is filed as organism-based. The conditions noted are these: in vivo, 312 h.
For data set [14], the system named is Zea mays. Kind of data set: Phytotoxicity against Zea mays (maize) plant at two to four-leaf growth stage at 500 g/ha measured after 13 days under green house conditions. It is filed as organism-based. The conditions noted are these: in vivo, 312 h.
The subject of data set [15] is Echinochloa crus-galli. Kind of data set: Post-emergent herbicidal activity against Echinochloa crus-galli (barnyard grass) at 50 g/ha measured after 13 days under green house conditions. The format is functional.
For data set [16], the system named is Setaria viridis. Kind of data set: Post-emergent herbicidal activity against Setaria viridis (green foxtail) at 50 g/ha measured after 13 days under green house conditions. It is filed as functional.
For data set [17], the system named is Sorghum halepense. Kind of data set: Post-emergent herbicidal activity against Sorghum halepense (Johnson grass) at 50 g/ha measured after 13 days under green house conditions. The format is functional.
In data set [18] the test system is Avena fatua. The data set can be described thus: Post-emergent herbicidal activity against Avena fatua at 50 g/ha measured after 13 days under green house conditions. It is filed as functional.
Data set [19] relates to Triticum aestivum. Kind of data set: Phytotoxicity against Triticum aestivum (wheat) at two to four-leaf growth stage at 50 g/ha measured after 13 days under green house conditions. It is filed as organism-based. The settings on record: in vivo, 312 h.
Data set [20] has as its system Oryza sativa. Kind of data set: Phytotoxicity against Oryza sativa (rice) plant at two to four-leaf growth stage at 50 g/ha measured after 13 days under green house conditions. The format is organism-based. The conditions noted are these: in vivo, 312 h.
For data set [21], the system named is Zea mays. Kind of data set: Phytotoxicity against Zea mays (maize) plant at two to four-leaf growth stage at 50 g/ha measured after 13 days under green house conditions. It is filed as organism-based. The conditions noted are these: in vivo, 312 h.

Activity calls are given as the source filed them. The calls are words filed in the database; no cut-off is given here.

With `CCOC(=O)C(C)Oc1ccc(N(C)c2cc3ccc(Cl)cc3cn2)cc1` (racemic), the result with Echinochloa crus-galli [1], in the data set with Setaria viridis [3], in the data set with Avena fatua [5] and in the data set on Sorghum halepense [10] was inactive. The Activity in the data set with Echinochloa crus-galli [2] is on record as 100%; with Sorghum halepense [4], 85%; in the data set with Avena fatua [6] it was 70%; with Triticum aestivum [7] it was “Non-toxic”; with Triticum aestivum [8], 85%; with Oryza sativa [9], “Non-toxic”. The Activity with Setaria viridis [11] was 85%; with Oryza sativa [12] it was 0%; in the data set on Zea mays [13], “Non-toxic”; with Zea mays [14] it was 100%.

For `COC(=O)C(C)Oc1ccc(Oc2ccc3cc(Cl)ccc3n2)cc1` (racemic), the result with Echinochloa crus-galli [1], with Setaria viridis [3], in the data set on Avena fatua [5] and with Sorghum halepense [10] was inactive. The Activity in the data set on Echinochloa crus-galli [2] was 100%; in the data set with Sorghum halepense [4], 100%; with Avena fatua [6], 85%; in the data set on Triticum aestivum [7], “Non-toxic”; in the data set with Triticum aestivum [8], 85%; with Oryza sativa [9], “Non-toxic”. Also, the Activity in the data set on Setaria viridis [11] is 100%; in the data set with Oryza sativa [12], 85%; in the data set on Zea mays [13], “Non-toxic”; in the data set on Zea mays [14] it was 100%.

As for `CCOC(=O)C(C)Oc1ccc(Oc2cc3ccc(Cl)cc3cn2)cc1` (racemic), the result in the data set with Echinochloa crus-galli [1], in the data set on Setaria viridis [3], in the data set on Avena fatua [5] and in the data set with Sorghum halepense [10] was inactive. Further, the Activity is recorded as 100% in the data set with Echinochloa crus-galli [2]; 100% with Sorghum halepense [4]; 85% with Avena fatua [6]; “Non-toxic” in the data set with Triticum aestivum [7]; 85% in the data set on Triticum aestivum [8]; “Non-toxic” in the data set with Oryza sativa [9]. In addition, the Activity in the data set with Setaria viridis [11] is listed as 85%; in the data set on Oryza sativa [12], 70%; in the data set on Zea mays [13], “Non-toxic”; in the data set with Zea mays [14] it was 70%.

With `COC(=O)C(C)Oc1ccc(N(C)c2ccc(C(F)(F)F)cn2)cc1` (racemic), the result in the data set with Echinochloa crus-galli [1], in the data set on Setaria viridis [3], with Avena fatua [5] and with Sorghum halepense [10] was inactive. Besides, the Activity is given as 50% in the data set with Echinochloa crus-galli [2]; 0% in the data set on Sorghum halepense [4]; 0% in the data set on Avena fatua [6]; “Non-toxic” in the data set on Triticum aestivum [7]; 30% in the data set on Triticum aestivum [8]; “Non-toxic” in the data set on Oryza sativa [9]. Besides, the Activity with Setaria viridis [11] is on record as 0%; in the data set on Oryza sativa [12], 0%; in the data set on Zea mays [13] it was “Non-toxic”; with Zea mays [14] it was 30%.

Turning to `COC(=O)C(C)Oc1ccc(Oc2ccc(Cl)cc2Cl)cc1` (racemic) [DICLOFOP-METHYL], the result with Echinochloa crus-galli [1], with Setaria viridis [3], with Avena fatua [5] and with Sorghum halepense [10] was inactive. In addition, the Activity in the data set with Echinochloa crus-galli [2] is 100%; in the data set with Sorghum halepense [4] it was 70%; in the data set with Avena fatua [6], 70%; in the data set on Triticum aestivum [7], “Non-toxic”; with Triticum aestivum [8], 0%; with Oryza sativa [9], “Non-toxic”. The Activity in the data set with Setaria viridis [11] is given as 100%; in the data set on Oryza sativa [12] it was 0%; in the data set with Zea mays [13], “Non-toxic”; in the data set with Zea mays [14], 85%.

`COC(=O)C(C)Oc1ccc(Oc2ncc3cc(Cl)ccc3n2)cc1` (racemic): the result with Echinochloa crus-galli [1], with Setaria viridis [3], with Avena fatua [5] and in the data set with Sorghum halepense [10] was inactive. Besides, the Activity is recorded as 85% in the data set with Echinochloa crus-galli [2]; 85% with Sorghum halepense [4]; 0% in the data set on Avena fatua [6]; “Non-toxic” in the data set on Triticum aestivum [7]; 0% in the data set on Triticum aestivum [8]; “Non-toxic” in the data set on Oryza sativa [9]. In addition, the Activity is given as 65% with Setaria viridis [11], 0% with Oryza sativa [12], “Non-toxic” with Zea mays [13] and 15% with Zea mays [14].

For the molecule `COC(=O)C(C)Oc1ccc(N(C)c2ccc(Cl)cc2Cl)cc1` (racemic), the outcome in the data set with Echinochloa crus-galli [1], in the data set on Setaria viridis [3], in the data set on Avena fatua [5] and in the data set with Sorghum halepense [10] was inactive. Also, the Activity in the data set with Echinochloa crus-galli [2] is 85%; in the data set with Sorghum halepense [4], 85%; with Avena fatua [6], 0%; with Triticum aestivum [7] it was “Non-toxic”; with Triticum aestivum [8] it was 70%; in the data set on Oryza sativa [9] it was “Non-toxic”. Moreover, the Activity in the data set with Setaria viridis [11] is reported as 85%; in the data set with Oryza sativa [12] it was 0%; in the data set on Zea mays [13], “Non-toxic”; in the data set on Zea mays [14] it was 30%.

`COC(=O)C(C)Oc1ccc(N(C)c2ccc3cc(Cl)ccc3n2)cc1` (racemic): the outcome with Echinochloa crus-galli [1], in the data set on Setaria viridis [3], in the data set with Avena fatua [5] and in the data set on Sorghum halepense [10] was inactive. Moreover, the Activity was 100% with Echinochloa crus-galli [2]; 100% with Sorghum halepense [4]; 70% in the data set on Avena fatua [6]; “Non-toxic” with Triticum aestivum [7]; 85% with Triticum aestivum [8]; “Non-toxic” in the data set on Oryza sativa [9]. The Activity is 85% with Setaria viridis [11], 30% in the data set on Oryza sativa [12], “Non-toxic” in the data set with Zea mays [13] and 100% in the data set on Zea mays [14].

Turning to `CCOC(=O)C(C)Oc1ccc(Oc2nc3ccc(Cl)cc3o2)cc1` (racemic) [FENOXAPROP-ETHYL], the outcome in the data set on Echinochloa crus-galli [1], in the data set on Setaria viridis [3], in the data set on Avena fatua [5] and with Sorghum halepense [10] was inactive. Also, the Activity with Echinochloa crus-galli [15] is on record as 100%; with Setaria viridis [16] it was 100%; in the data set on Sorghum halepense [17], 100%; with Avena fatua [18], 85%; in the data set with Triticum aestivum [7] it was “Non-toxic”; in the data set on Triticum aestivum [19], 0%. Besides, the Activity entry with Oryza sativa [9] is listed as “Non-toxic”; with Oryza sativa [20] it was 70%; with Zea mays [13] it was “Non-toxic”; with Zea mays [21], 85%.

Take `CCCCOC(=O)C(C)Oc1ccc(Oc2ccc(C(F)(F)F)cn2)cc1` (racemic): the outcome in the data set with Echinochloa crus-galli [1], in the data set on Setaria viridis [3], in the data set on Avena fatua [5] and in the data set on Sorghum halepense [10] was inactive. Moreover, the Activity in the data set with Echinochloa crus-galli [15] is 85%; in the data set with Setaria viridis [16], 85%; in the data set with Sorghum halepense [17] it was 85%; with Avena fatua [18], 85%; with Triticum aestivum [7], “Non-toxic”; in the data set on Triticum aestivum [19], 70%. The Activity entry with Oryza sativa [9] is “Non-toxic”; with Oryza sativa [20], 50%; in the data set on Zea mays [13], “Non-toxic”; with Zea mays [21], 85%.

Turning to `COC(=O)C(C)Oc1ccc(Oc2nnc3cc(Cl)ccc3n2)cc1` (racemic), the result in the data set on Echinochloa crus-galli [1], in the data set with Setaria viridis [3], with Avena fatua [5] and with Sorghum halepense [10] was inactive. For the same molecule, the Activity with Echinochloa crus-galli [2] was 50%; in the data set on Sorghum halepense [4], 30%; in the data set on Avena fatua [6] it was 0%; in the data set on Triticum aestivum [7] it was “Non-toxic”; in the data set on Triticum aestivum [8], 0%; in the data set with Oryza sativa [9], “Non-toxic”. Besides, the Activity in the data set on Setaria viridis [11] was 50%; in the data set on Oryza sativa [12], 0%; in the data set on Zea mays [13] it was “Non-toxic”; in the data set on Zea mays [14], 0%.

`CCOC(=O)C(C)Oc1ccc(N(C)c2cnc3cc(Cl)ccc3n2)cc1` (racemic): the outcome in the data set on Echinochloa crus-galli [1], in the data set with Setaria viridis [3], in the data set with Avena fatua [5] and with Sorghum halepense [10] was inactive. For the same molecule, the Activity with Echinochloa crus-galli [2] is reported as 85%; in the data set with Sorghum halepense [4], 85%; in the data set with Avena fatua [6], 0%; in the data set on Triticum aestivum [7] it was “Non-toxic”; in the data set with Triticum aestivum [8], 85%; with Oryza sativa [9], “Non-toxic”. For the same molecule, the Activity with Setaria viridis [11] is 85%; in the data set with Oryza sativa [12], 0%; in the data set with Zea mays [13], “Non-toxic”; with Zea mays [14] it was 50%.

For the origin of these results see ChEMBL document CHEMBL3045941, “-Methyl as a bioisostere for the oxygen link between the aromatic rings of aryloxyphenoxypropionate herbicides” (Bioorg Med Chem Lett, 1997).
